Measured values published in patent US12454675B2, “Method of increasing protein yield in mammalian cells in serum-free culture medium” (AGENCY FOR SCIENCE, TECHNOLOGY AND RESEARCH, priority 2016, dated 2025).

Tested on: CHO-K1 cells
Test: Adaptation of CHO-K1 cells into HyQ PF-CHO media with different disaccharides
Format: cell-based, Chinese Hamster
Details: 3.6 g/l sugar
Experimental: Viable cell density and culture viability were determined by Trypan blue dye exclusion method using Vi-Cell XR Cell Viability Analyzer (Beckman Coulter, Brea, CA) according to manufacturer's instructions. For biochemical and other cell culture parameter analyses, 1 ml of culture sample was centrifuged at 8000 g for 10 minutes to obtain clarified supernatant. […] At each passage during the adaptation process, viable cell density and culture viability before passage and after inoculation into fresh media were determined. […] Osmolality of these culture media were determined to be between 308 and 324 mOsm/kg, well within the range for optimal mammalian cell culture. The viable cell densities and culture viabilities of these cultures at the beginning and end of each passage over a period of 74 days are shown in FIG. 1. […] However, culture viabilities and viable cell densities of the maltose culture started to pick up on Day 14. Proliferation of the cells in maltose culture then maintained over the period of the time studied, while those in the other disaccharides were terminated on Day 31 due to the lack of cell growth and depressed culture viabilities.

## OC[C@H]1O[C@H](O[C@H]2[C@H](O)[C@@H](O)[C@H](O)O[C@@H]2CO)[C@H](O)[C@@H](O)[C@@H]1O [maltose]
  day on which culture viabilities and viable cell densities started to pick up: 14 days
Seeding 0.3×10^6 cells/ml, 74 days
  proliferation in serum-free protein-free culture medium with the sugar as sugar source: can proliferate
